SMILES strings stand for the structures.

The target in one assay is T1, ITK (Homo sapiens, UniProt Q08881).
T1 construct: purchased Promega Corporation
T1 sequence (Q08881 1-620): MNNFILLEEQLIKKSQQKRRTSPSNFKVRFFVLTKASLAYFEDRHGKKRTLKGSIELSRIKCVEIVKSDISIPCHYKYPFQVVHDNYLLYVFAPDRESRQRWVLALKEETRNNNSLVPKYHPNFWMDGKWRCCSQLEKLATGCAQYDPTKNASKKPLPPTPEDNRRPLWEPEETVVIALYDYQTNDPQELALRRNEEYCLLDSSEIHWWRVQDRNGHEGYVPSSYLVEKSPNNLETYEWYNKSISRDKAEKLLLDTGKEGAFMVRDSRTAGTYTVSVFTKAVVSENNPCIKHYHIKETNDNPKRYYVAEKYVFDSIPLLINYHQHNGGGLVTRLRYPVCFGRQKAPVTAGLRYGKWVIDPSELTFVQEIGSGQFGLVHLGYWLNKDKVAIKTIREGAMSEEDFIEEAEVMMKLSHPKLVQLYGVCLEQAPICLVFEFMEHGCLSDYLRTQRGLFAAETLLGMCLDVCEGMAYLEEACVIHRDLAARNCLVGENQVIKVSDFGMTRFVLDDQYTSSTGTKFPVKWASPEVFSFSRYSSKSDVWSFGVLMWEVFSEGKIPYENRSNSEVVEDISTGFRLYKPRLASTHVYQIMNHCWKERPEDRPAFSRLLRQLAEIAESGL
In words: Inhibitory activity against ITK (ADP-Glo + ITK Kinase enzyme system kit); selectivity BTK vs. ITK. The format is biochemical. The conditions noted are these: for IC50: ITK enzyme 0.4 ng/uL, ATP 25 uM, luminescence, duplicate; for Selectivity (based on IC50): selectivity for the inhibitory activity of BTK vs. ITK, Equation 1. Background: ADP-Glo turns the ADP formed in a reaction into a luminescent signal.

For a further assay, the target named is BTK (Homo sapiens, UniProt Q06187). In words: Inhibitory activity against BTK (ADP-Glo + BTK Kinase enzyme system kit).
BTK, sequence (Q06187 whole entry): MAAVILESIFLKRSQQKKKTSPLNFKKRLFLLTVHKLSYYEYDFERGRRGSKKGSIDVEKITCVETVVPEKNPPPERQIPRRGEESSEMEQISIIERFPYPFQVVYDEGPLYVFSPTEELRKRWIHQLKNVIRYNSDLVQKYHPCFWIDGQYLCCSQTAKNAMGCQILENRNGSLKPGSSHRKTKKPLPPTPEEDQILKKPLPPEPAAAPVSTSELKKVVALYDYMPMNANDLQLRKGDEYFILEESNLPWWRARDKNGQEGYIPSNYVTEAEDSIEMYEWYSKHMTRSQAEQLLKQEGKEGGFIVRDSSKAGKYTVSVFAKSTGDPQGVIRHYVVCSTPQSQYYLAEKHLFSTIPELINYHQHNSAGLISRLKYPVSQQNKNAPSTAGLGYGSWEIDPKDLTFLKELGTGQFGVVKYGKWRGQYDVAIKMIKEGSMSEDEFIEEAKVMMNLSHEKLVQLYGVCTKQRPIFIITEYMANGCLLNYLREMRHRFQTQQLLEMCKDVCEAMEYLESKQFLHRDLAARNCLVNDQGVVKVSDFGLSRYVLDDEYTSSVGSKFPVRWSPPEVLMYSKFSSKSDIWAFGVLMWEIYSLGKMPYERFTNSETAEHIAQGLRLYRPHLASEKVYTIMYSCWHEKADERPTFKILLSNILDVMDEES

As for `C=CC(=O)N1C[C@@H]2C[C@@H]1[C@@H](n1nc(-c3ccc(C(=O)Nc4ccccn4)cc3)c3c(N)ncnc31)C2` [Ex. 69, 4-(1-((1R,4R,6S)-2-acryloyl-2-azabicyclo[2.2.1]heptan-6-yl)-4-amino-1H-pyrazolo[3,4-d]pyrimidin-3-yl)-N-(pyridin-2-yl)benzamide], on ITK, the IC50 (as a rule, the concentration that gives 50% inhibition) was 235 nM and the “Selectivity (based on IC50)” value came to 181.2. Also, the IC50 on BTK came to 1.3 nM.
On to `C=CC(=O)N1C[C@@H]2C[C@H]1[C@@H](n1nc(-c3ccc(C(=O)Nc4ccccn4)cc3OC)c3c(N)ncnc31)C2` [Ex. 81, 4-(1-((1S,4R,6S)-2-acryloyl-2-azabicyclo[2.2.1]heptan-6-yl)-4-amino-1H-pyrazolo[3,4-d]pyrimidin-3-yl)-3-methoxy-N-(pyridin-2-yl)benzamide], for which the IC50 on ITK is over 200 nM; at BTK it was 1 nM. Also, at ITK, the “Selectivity (based on IC50)” value was over 200.
For `C#CC(=O)N1CC2CC1C(n1nc(-c3ccc(C(=O)Nc4ccccn4)cc3)c3c(N)ncnc31)C2` (centres unmarked) [Ex. 4, 4-(4-amino-1-(2-propioloyl-2-azabicyclo[2.2.1]heptan-6-yl)-1H-pyrazolo[3,4-d]pyrimidin-3-yl)-N-(pyridin-2-yl)benzamide], in that order: 104 nM, 2.8 nM and 37.1.
Taken in the same sequence, the figures for `C=CC(=O)N1CC2CC1C(n1nc(-c3ccc(Oc4ccccc4)cc3)c3c(N)ncnc31)C2` (centres unmarked) [Ex. 1, 1-(6-(4-amino-3-(4-phenoxyphenyl)-1H-pyrazolo[3,4-d]pyrimidin-1-yl)-2-azabicyclo[2.2.1]heptan-2-yl)prop-2-en-1-one] were 189 nM, 2.1 nM and 89.9.
Taken in the same sequence, the figures for `C=CC(=O)N1C[C@@H]2C[C@H]1[C@@H](n1nc(-c3ccc(C(=O)Nc4ccccn4)cc3Cl)c3c(N)ncnc31)C2` [Ex. 80, 4-(1-((1S,4R,6S)-2-acryloyl-2-azabicyclo[2.2.1]heptan-6-yl)-4-amino-1H-pyrazolo[3,4-d]pyrimidin-3-yl)-3-chloro-N-(pyridin-2-yl)benzamide] were 32.1 nM, 1.2 nM and 26.8.
Regarding `N#CC(=CC1CC1)C(=O)N1C[C@H]2CC(n3nc(-c4ccc(C(=O)Nc5ccccn5)cc4)c4c(N)ncnc43)[C@H]1C2` (stereo partly drawn) [Ex. 75, 4-(4-amino-1-((1R,4R)-2-(2-cyano-3-cyclopropylacryloyl)-2-azabicyclo[2.2.1]heptan-6-yl)-1H-pyrazolo[3,4-d]pyrimidin-3-yl)-N-(pyridin-2-yl)benzamide], at ITK, the IC50 worked out at 305 nM and the “Selectivity (based on IC50)” value was 76.2. The IC50 at BTK is 4 nM.
For `C=CC(=O)N1CC2CCC1C(n1nc(-c3ccc(Oc4ccccc4)cc3)c3c(N)ncnc31)C2` (centres unmarked) [Ex. 59, 1-(6-(4-amino-3-(4-phenoxyphenyl)-1H-pyrazolo[3,4-d]pyrimidin-1-yl)-2-azabicyclo[2.2.2]octan-2-yl)prop-2-en-1-one], in that order: 110 nM, 39.1 and 2.8 nM.
With `C=CC(=O)N1CC2CC1C(n1nc(-c3ccc(C(=O)Nc4cnccn4)cc3)c3c(N)ncnc31)C2` (centres unmarked) [Ex. 53, 4-(1-(2-acryloyl-2-azabicyclo[2.2.1]heptan-6-yl)-4-amino-1H-pyrazolo[3,4-d]pyrimidin-3-yl)-N-(pyrazin-2-yl)benzamide], on ITK, the IC50 was over 1000 nM and the “Selectivity (based on IC50)” value is listed as over 370.3. The half-inhibitory concentration (IC50) at BTK worked out at 2.7 nM.
In the case of `C=CC(=O)N1CC2CC1C(n1nc(-c3ccc(Oc4cccc(C(F)(F)F)c4)cc3)c3c(N)ncnc31)C2` (centres unmarked) [Ex. 43, 1-(6-(4-amino-3-(4-(3-(trifluoromethyl)phenoxy)phenyl)-1H-pyrazolo[3,4-d]pyrimidin-1-yl)-2-azabicyclo[2.2.1]heptan-2-yl)prop-2-en-1-one], at ITK, the IC50 was found to be 268 nM and the “Selectivity (based on IC50)” value is given as 86.4. Moreover, the IC50 at BTK worked out at 3.1 nM.
For `C=CC(=O)N1CC2CC1C(n1nc(-c3ccc(C(=O)Nc4ccccn4)cc3F)c3c(N)ncnc31)C2` (centres unmarked) [Ex. 64, 4-(1-(2-acryloyl-2-azabicyclo[2.2.1]heptan-6-yl)-4-amino-1H-pyrazolo[3,4-d]pyrimidin-3-yl)-3-fluoro-N-(pyridin-2-yl)benzamide], in that order: 71.5 nM, 44.7 and 1.6 nM.
Turning to `C=CC(=O)N1CC2CC1C(n1nc(-c3ccc(S(=O)(=O)Nc4ccccc4)cc3)c3c(N)ncnc31)C2` (centres unmarked) [Ex. 54, 4-(1-(2-acryloyl-2-azabicyclo[2.2.1]heptan-6-yl)-4-amino-1H-pyrazolo[3,4-d]pyrimidin-3-yl)-N-phenylbenzenesulfonamide], the figures for the IC50 on ITK and at BTK were over 1000 nM and 2.2 nM, respectively. The “Selectivity (based on IC50)” value at ITK was over 454.5.
With `C=CC(=O)N1CC2CC1C(n1nc(-c3ccc(C(=O)Nc4cc(C)ccn4)cc3)c3c(N)ncnc31)C2` (centres unmarked) [Ex. 68, 4-(1-(2-acryloyl-2-azabicyclo[2.2.1]heptan-6-yl)-4-amino-1H-pyrazolo[3,4-d]pyrimidin-3-yl)-N-(4-methylpyridin-2-yl)benzamide], at ITK, the IC50 worked out at 176 nM and the “Selectivity (based on IC50)” value is reported as 73.1. In addition, at BTK, the IC50 stood at 2.4 nM.
On to `N#CC(=CC1CC1)C(=O)N1C[C@@H]2C[C@@H]1[C@@H](n1nc(-c3ccc(C(=O)Nc4cc(F)ccn4)cc3F)c3c(N)ncnc31)C2` [Ex. 83, 4-(4-amino-1-((1R,4R,6S)-2-(2-cyano-3-cyclopropylacryloyl)-2-azabicyclo[2.2.1]heptan-6-yl)-1H-pyrazolo[3,4-d]pyrimidin-3-yl)-3-fluoro-N-(4-fluoropyridin-2-yl)benzamide], for which the IC50 was 229 nM on ITK and 2.8 nM at BTK. Also, on ITK, the “Selectivity (based on IC50)” value stood at 81.7.
For `C=CC(=O)N1C[C@@H]2C[C@H]1C[C@H]2n1nc(-c2ccc(Oc3ccccc3)cc2)c2c(N)ncnc21` [Ex. 14, 1-((1S,4S,5R)-5-(4-amino-3-(4-phenoxyphenyl)-1H-pyrazolo[3,4-d]pyrimidin-1-yl)-2-azabicyclo[2.2.1]heptan-2-yl)prop-2-en-1-one], in that order: over 1000 nM, 2.6 nM and over 384.6.
Taken in the same sequence, the figures for `N#CC(=CC1CC1)C(=O)N1C[C@@H]2C[C@@H]1[C@@H](n1nc(-c3ccc(C(=O)Nc4ccccn4)cc3F)c3c(N)ncnc31)C2` [Ex. 82, 4-(4-amino-1-((1R,4R,6S)-2-(2-cyano-3-cyclopropylacryloyl)-2-azabicyclo[2.2.1]heptan-6-yl)-1H-pyrazolo[3,4-d]pyrimidin-3-yl)-3-fluoro-N-(pyridin-2-yl)benzamide] were over 200 nM, 3.6 nM and 55.6.
As for `C=CC(=O)N1CC2CC1C(n1nc(-c3ccc(Oc4cccc(N(C)C)c4)cc3)c3c(N)ncnc31)C2` (centres unmarked) [Ex. 42, 1-(6-(4-amino-3-(4-(3-(dimethylamino)phenoxy)phenyl)-1H-pyrazolo[3,4-d]pyrimidin-1-yl)-2-azabicyclo[2.2.1]heptan-2-yl)prop-2-en-1-one], at ITK, the IC50 is over 500 nM and the “Selectivity (based on IC50)” value is listed as over 147. Also, on BTK, the IC50 was found to be 3.4 nM.
Consider `C=CC(=O)N1CC2CC1CC2n1nc(-c2ccc(Oc3ccccc3)cc2)c2c(N)ncnc21` (centres unmarked) [Ex. 12, 1-(5-(4-amino-3-(4-phenoxyphenyl)-1H-pyrazolo[3,4-d]pyrimidin-1-yl)-2-azabicyclo[2.2.1]heptan-2-yl)prop-2-en-1-one], for which, on ITK, the IC50 was over 1000 nM and the “Selectivity (based on IC50)” value was over 303.3. Also, the half-inhibitory concentration (IC50) on BTK is 3.3 nM.
On to `C=CC(=O)N1CC2CC1C(n1nc(-c3ccc(S(=O)(=O)c4ccccc4)cc3)c3c(N)ncnc31)C2` (centres unmarked) [Ex. 32, 1-(6-(4-amino-3-(4-(phenylsulfonyl)phenyl)-1H-pyrazolo[3,4-d]pyrimidin-1-yl)-2-azabicyclo[2.2.1]heptan-2-yl)prop-2-en-1-one], for which, on ITK, the IC50 is over 1000 nM and the “Selectivity (based on IC50)” value is reported as over 250. Further, the IC50 at BTK stood at 4 nM.
As for `C#CC(=O)N1CC2CC1C(n1nc(-c3ccc(Oc4ccccc4)cc3)c3c(N)ncnc31)C2` (centres unmarked) [Ex. 2, 1-(6-(4-amino-3-(4-phenoxyphenyl)-1H-pyrazolo[3,4-d]pyrimidin-1-yl)-2-azabicyclo[2.2.1]heptan-2-yl)prop-2-yn-1-one], on ITK, the half-inhibitory concentration (IC50) stood at 26.3 nM and the “Selectivity (based on IC50)” value stood at 32.9. In addition, the half-inhibitory concentration (IC50) at BTK stood at 0.8 nM.
For `C=CC(=O)N1CC2CC1C(n1nc(-c3ccc(C(=O)Nc4ccccc4)cc3)c3c(N)ncnc31)C2` (centres unmarked) [Ex. 19, 4-(1-(2-acryloyl-2-azabicyclo[2.2.1]heptan-6-yl)-4-amino-1H-pyrazolo[3,4-d]pyrimidin-3-yl)-N-phenylbenzamide], at BTK, the IC50 worked out at 10.8 nM.
On the same count and under the same terms, in the case of `C=CC(=O)N1CC2CC1C(n1nc(-c3cccc(C(=O)Nc4ccc(C(C)C)cc4)c3)c3c(N)ncnc31)C2` (centres unmarked) [Ex. 8, 3-(1-(2-acryloyl-2-azabicyclo[2.2.1]heptan-6-yl)-4-amino-1H-pyrazolo[3,4-d]pyrimidin-3-yl)-N-(4-isopropylphenyl)benzamide] it was 139 nM.

These data come from patent US10399988B2, “4-aminopyrazolo[3,4-d]pyrimidinylazabicyclo derivatives and pharmaceutical composition comprising the same” (Daewoong Pharmaceutical Co., Ltd., priority 2016, dated 2019).
